Patent US11602530B2, “CRM1 inhibitors for treating epilepsy” (Biogen MA Inc., priority 2016, dated 2023)

Tests used:
[1] = test system: male NMRI mice; assay: Pilocarpine model of temporal lobe epilepsy (TLE), spontaneous recurrent seizures; assay type: in vivo; details: for reduction in seizure activity: 7.5 mg/kg per os every other day for two weeks
Protocol: FIG. 1 is a description of a pilocarpine model of temporal lobe epilepsy (TLE) in male NMRI mice. The treatment phase was compound E-1 in Table I administered at 7.5 mg/kg per os or vehicle, every other day for the two week treatment period. Vehicle was 0.6% plasdone PVP K29/32 and 0.6% poloxamer Pluronic F68 in water.
A well-established pilocarpine model of temporal lobe epilepsy (TLE) that has been recently optimized for mice can be used (Mazzuferi et al., Exp. Neurol. 238:156-67). Status epilepticus (SE) can be initiated with a single 300 mg/kg intraperitoneal (i.p.) injection of pilocarpine in male NMRI mice, 30 min after N-methylscopolamine bromide administration (1 mg/kg; i.p.). Within 10 to 45 min after pilocarpine treatment, animals display generalized tonic-clonic seizures that progress to continuous convulsive activity, i.e. SE. To limit the duration of SE, mice can be injected with a bolus dose of diazepam (10 mg/kg; i.p.) after 3 h. The mice typically show spontaneous recurrent seizures within few days after SE and continue to display them throughout their lifetime.
A separate cohort of animals (for example, n=40) can then undergo continuous monitoring for spontaneous recurrent seizures during 28 consecutive days beginning 8-10 weeks following pilocarpine induced SE. The seizure monitoring can be performed by simultaneous recording of locomotor activity with a 3D accelerometer and video. This system allows for automated detection of behavioral seizures by analysis of the accelerometry signal. All behavioral seizures can be scored according to the Racine's protocol after detailed review of corresponding video clips by experienced technical personnel. Secondary generalized seizures, a Racine's score of 3-5, will be quantified and used for calculation of total seizure counts. […]

[2] = Body weight of treated mice in the pilocarpine TLE model; assay type: in vivo; details: 7.5 mg/kg per os every other day for two weeks
Protocol: Following the general procedure described in Example 1 and outlined in FIG. 1, Compound E1 of Table I was administered to mice during the treatment phase at 7.5 mg/kg per os every other day for the two weeks of treatment.

CC(C)(C)C(=O)NNC(=O)/C=C\n1cnc(-c2cc(C(F)(F)F)cc(C(F)(F)F)c2)n1 [Compound E-1, (Z)-3-(3-(3,5-bis(trifluoromethyl)phenyl)-1H-1,2,4-triazol-1-yl)-N′-pivaloylacrylohydrazide]
reduction in seizure occurrence in comparison to vehicle treated mice ([1]; a significant number of mice, chronic administration (FIG. 4)): 50%
reduction in seizure activity ([1]; all treated mice (24 dosed)): ≥ 50%
reduction in seizure activity ([1]; six of the treated mice): 100%
change in body weight of the treated mice [2]: no change
